Measured values from paper PMC2386552, “Toward the Assessment of Food Toxicity for Celiac Patients: Characterization of Monoclonal Antibodies to a Main Immunogenic Gluten Peptide” (PLoS ONE, 2008).

Tests used:
A1 moAb = experiment: Indirect ELISA of C-LYTAG-peptide fusions (E. coli extracts) with moAb A1; format: binding; settings: indirect ELISA of bacterial extracts containing the fusion peptides
Source text: (§1) To determine the epitope recognized by the G12 and A1 moAb within the 33-mer peptide, fusions of the C-LYTAG coding sequence of the pALEXb plasmid (Biomedal S.L., Sevilla, Spain) were constructed with coding sequences of hepta- and octapeptides comprising the complete sequence of the 33-mer peptide (Figure 3A). The resulting plasmids were introduced by transformation into the REG1 strain of Escherichia coli, allowing for over-expression of the encoded fusion proteins upon induction (Biomedal S.L., Sevilla, Spain). The over-expressed bacterial extracts were analyzed by indirect ELISA using the anti-33-mer A1 and G12 moAbs. Similarly, the anti-C-LYTAG 6B5L1 moAb (Biomedal, S.L., Sevilla, Spain) was used to establish that the designed protein was expressed intact in all cases. […]
(§2) A Maxisorp microtiter plate (Nunc, Roskilde, Denmark) was coated overnight at 4°C with 100 µL/well of the appropriate antigen (C-LYTAG-33-mer protein, gliadin, hordein, secalin, avenin, oryzein, zein or soluble protein extracts containing peptide fusions) serially diluted with 0.1 M of Na2CO3-NaHCO3 (pH 9.6). […] Absorbance at 450 nm was measured in the microplate reader UVM340 (Asys Hitech GmbH, Eugendorf, Austria).

G12 moAb = experiment: Indirect ELISA of C-LYTAG-peptide fusions (E. coli extracts) with moAb G12; format: binding; settings: indirect ELISA of bacterial extracts containing the fusion peptides
Source text: as §1, §2

Row | Substance | signal with A1 moAb (A1 moAb) | signal with G12 moAb (G12 moAb)
1 | QLPYPQP [Gln66-Pro72, C-LYTAG fusion peptide QLPYPQP expressed in E. coli] | positive signal | –
2 | PQPQLPY [Pro63-Tyr69, C-LYTAG fusion peptide PQPQLPY expressed in E. coli] | – | positive signal
3 | QPQLPYP [Gln64-Pro70, C-LYTAG fusion peptide QPQLPYP expressed in E. coli] | – | positive signal
